Laboratory results as given in ChEMBL document CHEMBL4507256 (2021).

How the values were obtained:
[1] = biological target: Mitogen-activated protein kinase kinase kinase kinase 4 (Homo sapiens) (UniProt O95819); conditions: Compound concentration 1000.0 nM
[2] = biological target: Serine/threonine-protein kinase MARK2 (Homo sapiens) (UniProt Q7KZI7); conditions: Compound concentration 1000.0 nM
[3] = biological target: Cyclin-dependent kinase 5 (Homo sapiens) (UniProt Q00535); conditions: Compound concentration 1000.0 nM
[4] = biological target: D(3) dopamine receptor (Homo sapiens) (UniProt P35462); conditions: Compound concentration 10.0 uM
[5] = biological target: Alpha-2C adrenergic receptor (Homo sapiens) (UniProt P18825); conditions: Compound concentration 10.0 uM
[6] = biological target: Mitogen-activated protein kinase 6 (Homo sapiens) (UniProt Q16659); conditions: Compound concentration 1000.0 nM
[7] = biological target: T1, Muscarinic acetylcholine receptor M1 (Homo sapiens) (UniProt P11229); conditions: Compound concentration 10.0 uM
T1 sequence (whole entry): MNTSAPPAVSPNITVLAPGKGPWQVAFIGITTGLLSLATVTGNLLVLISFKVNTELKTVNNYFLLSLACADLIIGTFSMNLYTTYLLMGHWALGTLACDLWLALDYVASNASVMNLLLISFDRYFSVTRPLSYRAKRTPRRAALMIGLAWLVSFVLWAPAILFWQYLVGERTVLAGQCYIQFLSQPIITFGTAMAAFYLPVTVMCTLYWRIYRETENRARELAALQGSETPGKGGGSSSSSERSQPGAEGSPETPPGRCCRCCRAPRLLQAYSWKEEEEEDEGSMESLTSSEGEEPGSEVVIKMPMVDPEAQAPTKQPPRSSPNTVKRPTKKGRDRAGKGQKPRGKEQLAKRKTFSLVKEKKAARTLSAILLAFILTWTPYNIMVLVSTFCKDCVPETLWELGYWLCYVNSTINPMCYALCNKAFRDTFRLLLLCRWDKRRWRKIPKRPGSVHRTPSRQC

[8] = biological target: Cyclin-dependent kinase-like 2 (Homo sapiens) (UniProt Q92772); conditions: Compound concentration 1000.0 nM
Sequence of Cyclin-dependent kinase-like 2 (Homo sapiens) (Q92772 whole entry): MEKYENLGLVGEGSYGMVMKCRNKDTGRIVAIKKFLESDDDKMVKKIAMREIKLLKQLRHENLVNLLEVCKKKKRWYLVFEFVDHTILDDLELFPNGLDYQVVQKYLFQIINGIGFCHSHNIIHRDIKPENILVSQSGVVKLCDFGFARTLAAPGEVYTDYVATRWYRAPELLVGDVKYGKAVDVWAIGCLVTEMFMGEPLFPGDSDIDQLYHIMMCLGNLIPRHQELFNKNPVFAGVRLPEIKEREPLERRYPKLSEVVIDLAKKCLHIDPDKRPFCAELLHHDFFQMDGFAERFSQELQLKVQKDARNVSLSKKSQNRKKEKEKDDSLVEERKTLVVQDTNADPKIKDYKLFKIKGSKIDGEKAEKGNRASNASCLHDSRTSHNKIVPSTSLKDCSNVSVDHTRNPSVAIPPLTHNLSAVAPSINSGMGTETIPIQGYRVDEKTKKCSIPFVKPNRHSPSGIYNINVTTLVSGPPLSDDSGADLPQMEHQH

[9] = biological target: Serine/threonine-protein kinase 32B (Homo sapiens) (UniProt Q9NY57); conditions: Compound concentration 1000.0 nM
[10] = biological target: Proto-oncogene tyrosine-protein kinase receptor Ret (Homo sapiens) (UniProt P07949); conditions: Compound concentration 1000.0 nM
[11] = biological target: Serine/threonine-protein kinase D2 (Homo sapiens) (UniProt Q9BZL6); conditions: Compound concentration 1000.0 nM
[12] = biological target: BMP-2-inducible protein kinase (Homo sapiens) (UniProt Q9NSY1); conditions: Compound concentration 1000.0 nM
Sequence of BMP-2-inducible protein kinase (Homo sapiens) (Q9NSY1 whole entry, looked up): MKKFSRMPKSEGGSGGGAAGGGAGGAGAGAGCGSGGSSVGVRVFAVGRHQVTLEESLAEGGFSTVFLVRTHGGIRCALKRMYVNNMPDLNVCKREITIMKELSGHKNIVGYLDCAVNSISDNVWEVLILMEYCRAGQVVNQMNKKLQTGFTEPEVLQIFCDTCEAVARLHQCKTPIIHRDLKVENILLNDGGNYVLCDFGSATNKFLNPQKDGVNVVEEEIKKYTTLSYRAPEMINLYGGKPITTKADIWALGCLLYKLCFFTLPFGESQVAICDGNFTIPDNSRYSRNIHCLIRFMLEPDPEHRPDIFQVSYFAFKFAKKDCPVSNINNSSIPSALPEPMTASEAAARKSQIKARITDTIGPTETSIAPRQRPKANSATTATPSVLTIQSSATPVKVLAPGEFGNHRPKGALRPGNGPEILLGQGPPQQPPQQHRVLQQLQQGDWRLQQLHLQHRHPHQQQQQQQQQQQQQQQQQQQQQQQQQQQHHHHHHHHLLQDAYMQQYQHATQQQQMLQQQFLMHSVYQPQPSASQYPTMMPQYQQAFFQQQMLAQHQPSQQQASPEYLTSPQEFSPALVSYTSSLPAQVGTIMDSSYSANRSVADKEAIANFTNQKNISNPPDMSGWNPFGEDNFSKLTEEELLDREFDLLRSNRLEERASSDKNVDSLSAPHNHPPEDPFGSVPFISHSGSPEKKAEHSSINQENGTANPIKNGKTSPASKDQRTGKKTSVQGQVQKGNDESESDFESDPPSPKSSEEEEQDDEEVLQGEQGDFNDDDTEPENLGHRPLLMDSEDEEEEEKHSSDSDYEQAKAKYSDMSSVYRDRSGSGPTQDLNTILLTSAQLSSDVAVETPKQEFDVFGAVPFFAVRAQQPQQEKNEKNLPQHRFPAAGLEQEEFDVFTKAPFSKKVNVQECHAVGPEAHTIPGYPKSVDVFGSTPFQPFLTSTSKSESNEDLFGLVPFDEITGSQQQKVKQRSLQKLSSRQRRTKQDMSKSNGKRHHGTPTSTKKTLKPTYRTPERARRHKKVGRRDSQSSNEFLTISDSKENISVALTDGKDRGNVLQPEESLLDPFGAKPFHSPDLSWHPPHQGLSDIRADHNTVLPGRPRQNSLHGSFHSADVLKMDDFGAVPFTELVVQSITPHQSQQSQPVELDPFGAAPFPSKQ

[13] = biological target: Myosin-IIIb (Homo sapiens) (UniProt Q8WXR4); conditions: Compound concentration 1000.0 nM
[14] = test system: Tyrosine-protein kinase ABL1 (Homo sapiens), P00519 [F317I]; conditions: Compound concentration 1000.0 nM
[15] = biological target: Mitogen-activated protein kinase kinase kinase 5 (Homo sapiens) (UniProt Q99683); conditions: Compound concentration 1000.0 nM
[16] = test system: Tyrosine-protein kinase ABL1 (Homo sapiens), P00519 [F317L]; conditions: Compound concentration 1000.0 nM
[17] = biological target: Ephrin type-B receptor 3 (Homo sapiens) (UniProt P54753); conditions: Compound concentration 1000.0 nM
[18] = biological target: Platelet-derived growth factor receptor alpha (Homo sapiens) (UniProt P16234); conditions: Compound concentration 1000.0 nM
Sequence of Platelet-derived growth factor receptor alpha (Homo sapiens) (P16234 whole entry): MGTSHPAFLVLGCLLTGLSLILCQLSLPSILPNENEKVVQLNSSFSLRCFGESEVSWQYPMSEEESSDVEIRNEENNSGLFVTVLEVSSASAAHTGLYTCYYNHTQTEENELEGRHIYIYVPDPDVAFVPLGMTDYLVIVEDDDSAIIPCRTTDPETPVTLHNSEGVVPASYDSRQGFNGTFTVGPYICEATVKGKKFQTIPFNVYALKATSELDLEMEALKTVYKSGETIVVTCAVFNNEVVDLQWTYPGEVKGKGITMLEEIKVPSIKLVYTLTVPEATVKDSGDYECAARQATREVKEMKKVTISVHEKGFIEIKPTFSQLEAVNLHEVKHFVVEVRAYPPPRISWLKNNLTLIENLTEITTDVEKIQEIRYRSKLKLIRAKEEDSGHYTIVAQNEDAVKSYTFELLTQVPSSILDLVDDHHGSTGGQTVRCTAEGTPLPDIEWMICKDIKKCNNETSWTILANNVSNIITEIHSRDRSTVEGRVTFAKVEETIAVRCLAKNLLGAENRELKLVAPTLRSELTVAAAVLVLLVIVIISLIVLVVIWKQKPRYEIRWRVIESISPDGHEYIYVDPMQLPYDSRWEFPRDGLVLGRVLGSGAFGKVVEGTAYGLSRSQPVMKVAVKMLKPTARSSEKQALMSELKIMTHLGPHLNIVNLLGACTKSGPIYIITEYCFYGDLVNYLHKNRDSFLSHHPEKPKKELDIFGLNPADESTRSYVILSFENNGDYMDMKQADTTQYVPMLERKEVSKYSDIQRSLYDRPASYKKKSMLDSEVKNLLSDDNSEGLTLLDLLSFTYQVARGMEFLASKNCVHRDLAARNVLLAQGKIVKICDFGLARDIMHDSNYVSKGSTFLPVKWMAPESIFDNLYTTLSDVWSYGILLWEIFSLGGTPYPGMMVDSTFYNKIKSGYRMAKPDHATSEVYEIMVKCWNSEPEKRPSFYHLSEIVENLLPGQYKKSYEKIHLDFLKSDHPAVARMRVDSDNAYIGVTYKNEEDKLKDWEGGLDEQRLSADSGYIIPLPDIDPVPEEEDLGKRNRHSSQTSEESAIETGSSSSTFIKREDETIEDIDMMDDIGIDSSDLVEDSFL

[19] = test system: Receptor-type tyrosine-protein kinase FLT3 (Homo sapiens), P36888 [K663Q]; conditions: Compound concentration 1000.0 nM
[20] = biological target: Insulin receptor (Homo sapiens) (UniProt P06213); conditions: Compound concentration 1000.0 nM
[21] = biological target: Ribosomal protein S6 kinase alpha-5 (Homo sapiens) (UniProt O75582); conditions: Compound concentration 1000.0 nM
Sequence of Ribosomal protein S6 kinase alpha-5 (Homo sapiens) (O75582 whole entry, looked up): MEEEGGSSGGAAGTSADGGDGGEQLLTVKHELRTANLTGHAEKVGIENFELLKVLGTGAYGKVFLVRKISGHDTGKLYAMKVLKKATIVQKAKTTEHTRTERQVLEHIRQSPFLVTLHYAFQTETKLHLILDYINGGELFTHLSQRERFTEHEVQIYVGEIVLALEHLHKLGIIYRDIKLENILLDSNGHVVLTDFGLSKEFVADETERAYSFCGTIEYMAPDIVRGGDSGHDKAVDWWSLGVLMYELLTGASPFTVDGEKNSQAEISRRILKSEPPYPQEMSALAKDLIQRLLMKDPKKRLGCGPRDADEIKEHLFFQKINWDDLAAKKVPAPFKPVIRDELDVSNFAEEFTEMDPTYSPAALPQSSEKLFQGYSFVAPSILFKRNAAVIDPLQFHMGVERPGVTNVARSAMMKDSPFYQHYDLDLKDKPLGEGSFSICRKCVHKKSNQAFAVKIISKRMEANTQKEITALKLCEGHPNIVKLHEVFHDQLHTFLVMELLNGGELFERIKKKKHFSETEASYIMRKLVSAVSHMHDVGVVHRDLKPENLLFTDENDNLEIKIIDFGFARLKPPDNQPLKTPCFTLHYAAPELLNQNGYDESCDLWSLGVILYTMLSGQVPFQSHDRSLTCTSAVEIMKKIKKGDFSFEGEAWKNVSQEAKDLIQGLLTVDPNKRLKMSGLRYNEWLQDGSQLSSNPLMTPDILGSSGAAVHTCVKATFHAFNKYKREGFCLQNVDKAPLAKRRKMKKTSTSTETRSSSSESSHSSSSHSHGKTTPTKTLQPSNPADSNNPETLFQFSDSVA

[22] = biological target: Membrane-associated tyrosine- and threonine-specific cdc2-inhibitory kinase (Homo sapiens) (UniProt Q99640); conditions: Compound concentration 1000.0 nM
Sequence of Membrane-associated tyrosine- and threonine-specific cdc2-inhibitory kinase (Homo sapiens) (Q99640 whole entry): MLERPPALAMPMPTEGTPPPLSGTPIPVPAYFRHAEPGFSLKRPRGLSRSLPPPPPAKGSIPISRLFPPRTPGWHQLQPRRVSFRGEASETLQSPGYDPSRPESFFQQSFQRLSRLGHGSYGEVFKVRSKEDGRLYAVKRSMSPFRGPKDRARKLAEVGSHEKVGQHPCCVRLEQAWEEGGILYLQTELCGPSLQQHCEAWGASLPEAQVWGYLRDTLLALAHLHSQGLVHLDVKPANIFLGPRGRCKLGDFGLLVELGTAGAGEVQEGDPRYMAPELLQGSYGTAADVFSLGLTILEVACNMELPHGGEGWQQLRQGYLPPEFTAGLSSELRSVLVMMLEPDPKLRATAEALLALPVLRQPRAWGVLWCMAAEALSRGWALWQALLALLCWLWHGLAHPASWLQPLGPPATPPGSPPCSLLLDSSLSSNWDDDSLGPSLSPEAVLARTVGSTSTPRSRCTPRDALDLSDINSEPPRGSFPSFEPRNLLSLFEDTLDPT

[23] = biological target: GABA-A receptor; anion channel (Rattus norvegicus) (UniProt O09028+P15431+P18506+P18508+P19969+P20236+P23574+P23576+P28471+P28473+P30191+P62813+P63079+P63138+Q91ZM7+Q9ES14); conditions: Compound concentration 10.0 uM
[24] = biological target: Serine/threonine-protein kinase 25 (Homo sapiens) (UniProt O00506); conditions: Compound concentration 1000.0 nM
[25] = biological target: Tyrosine-protein kinase Tec (Homo sapiens) (UniProt P42680); conditions: Compound concentration 1000.0 nM
[26] = test system: Phosphatidylinositol 4,5-bisphosphate 3-kinase catalytic subunit alpha isoform (Homo sapiens), P42336 [H1047L]; conditions: Compound concentration 1000.0 nM
[27] = biological target: Serine/threonine-protein kinase 32C (Homo sapiens) (UniProt Q86UX6); conditions: Compound concentration 1000.0 nM
[28] = biological target: Tyrosine-protein kinase receptor Tie-1 (Homo sapiens) (UniProt P35590); conditions: Compound concentration 1000.0 nM
[29] = biological target: Activin receptor type-1 (Homo sapiens) (UniProt Q04771); conditions: Compound concentration 1000.0 nM
[30] = biological target: AP2-associated protein kinase 1 (Homo sapiens) (UniProt Q2M2I8); conditions: Compound concentration 1000.0 nM
Sequence of AP2-associated protein kinase 1 (Homo sapiens) (Q2M2I8 whole entry, looked up): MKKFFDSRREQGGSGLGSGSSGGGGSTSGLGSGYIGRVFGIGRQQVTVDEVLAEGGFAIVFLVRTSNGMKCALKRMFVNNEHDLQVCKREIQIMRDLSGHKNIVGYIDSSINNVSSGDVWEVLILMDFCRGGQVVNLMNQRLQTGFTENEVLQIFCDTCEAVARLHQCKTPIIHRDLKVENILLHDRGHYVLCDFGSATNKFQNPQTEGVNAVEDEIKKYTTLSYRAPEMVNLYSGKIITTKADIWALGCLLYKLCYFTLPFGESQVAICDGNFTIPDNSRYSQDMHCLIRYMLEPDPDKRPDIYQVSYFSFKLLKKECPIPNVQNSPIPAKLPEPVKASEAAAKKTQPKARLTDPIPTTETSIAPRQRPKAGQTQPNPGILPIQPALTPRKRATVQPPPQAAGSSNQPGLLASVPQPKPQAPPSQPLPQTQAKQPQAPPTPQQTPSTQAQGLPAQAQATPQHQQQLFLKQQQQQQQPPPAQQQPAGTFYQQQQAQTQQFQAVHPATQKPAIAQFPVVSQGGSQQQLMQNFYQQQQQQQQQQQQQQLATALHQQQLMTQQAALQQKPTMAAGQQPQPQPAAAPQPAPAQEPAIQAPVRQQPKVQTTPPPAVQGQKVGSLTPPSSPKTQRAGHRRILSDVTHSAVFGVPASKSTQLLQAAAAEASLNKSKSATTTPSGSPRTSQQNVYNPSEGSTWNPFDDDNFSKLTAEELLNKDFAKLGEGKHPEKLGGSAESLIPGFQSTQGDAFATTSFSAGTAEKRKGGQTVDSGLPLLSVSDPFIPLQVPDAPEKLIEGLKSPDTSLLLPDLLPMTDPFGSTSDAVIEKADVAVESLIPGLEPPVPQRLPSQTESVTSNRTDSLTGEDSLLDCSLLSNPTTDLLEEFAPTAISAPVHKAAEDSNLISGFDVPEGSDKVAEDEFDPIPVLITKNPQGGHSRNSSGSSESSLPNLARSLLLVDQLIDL

[31] = biological target: Phosphatidylinositol 5-phosphate 4-kinase type-2 gamma (Homo sapiens) (UniProt Q8TBX8); conditions: Compound concentration 1000.0 nM
[32] = test system: Epidermal growth factor receptor (Homo sapiens), P00533 [UNDEFINED MUTATION]; conditions: Compound concentration 1000.0 nM

CCC(=N\O)/C(C)=C/c1ccc(F)c(C)c1 [A-226]
inactive: residual activity [1] 100% | residual activity [2] 100% | residual activity [3] 86% | inhibition [4] 8.6% | inhibition [5] 15.7% | residual activity [6] 100% | inhibition [7] -2.46% | residual activity [8] 81% | residual activity [9] 99% | residual activity [10] 100% | residual activity [11] 100% | residual activity [12] 100% | residual activity [13] 67% | residual activity [14] 100% | residual activity [15] 100% | residual activity [16] 100% | residual activity [17] 96% | residual activity [18] 100% | residual activity [19] 100% | residual activity [20] 100% | residual activity [21] 78% | residual activity [22] 61% | inhibition [23] 20.3% | residual activity [24] 100% | residual activity [25] 100% | residual activity [26] 100% | residual activity [27] 100% | residual activity [28] 100% | residual activity [29] 100% | residual activity [30] 98% | residual activity [31] 85% | residual activity [32] 100%

CCC(=N\O)/C(C)=C/c1ccc(F)cc1 [A-079]
inactive: residual activity [1] 97% | residual activity [2] 100% | residual activity [3] 68% | inhibition [4] 14.5% | inhibition [5] 8.29% | residual activity [6] 73% | inhibition [7] 15.2% | residual activity [8] 92% | residual activity [9] 100% | residual activity [10] 100% | residual activity [11] 99% | residual activity [12] 80% | residual activity [13] 100% | residual activity [14] 100% | residual activity [15] 93% | residual activity [16] 81% | residual activity [17] 75% | residual activity [18] 78% | residual activity [19] 100% | residual activity [20] 100% | residual activity [21] 100% | residual activity [22] 100% | inhibition [23] 21.5% | residual activity [24] 86% | residual activity [25] 89% | residual activity [26] 100% | residual activity [27] 65% | residual activity [28] 63% | residual activity [29] 80% | residual activity [30] 89% | residual activity [31] 83% | residual activity [32] 69%
